Data from patent US10508120B2, “TYK2 inhibitors and uses thereof” (Nimbus Lakshmi, Inc., priority 2017, dated 2019).
Where two headings read alike, the source gives them in different places.

Assays:
[1] = target: Tyk2 kinase domain (DH1) (Homo sapiens (Human), UniProt P29597); test: Tyk2 Radioactive Kinase Assay; assay type: biochemical; details: for inhibition at 10 µM: read-out: Tyk2 JH1% Inhibition @ 10 μM
Method in brief: (§1)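 Values are single-concentration percent inhibition figures. They were obtained with 10 μM compound in a radioactivity-based kinase assay run separately on each enzyme.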

[2] = target: human TYK2 (JH2domain-pseudokinase) (Homo sapiens (Human), UniProt P29597); test: TYK2 JH2 Domain Binding Assay (KINOMEscan)
Sequence of human TYK2 (JH2domain-pseudokinase) (P29597 556-888): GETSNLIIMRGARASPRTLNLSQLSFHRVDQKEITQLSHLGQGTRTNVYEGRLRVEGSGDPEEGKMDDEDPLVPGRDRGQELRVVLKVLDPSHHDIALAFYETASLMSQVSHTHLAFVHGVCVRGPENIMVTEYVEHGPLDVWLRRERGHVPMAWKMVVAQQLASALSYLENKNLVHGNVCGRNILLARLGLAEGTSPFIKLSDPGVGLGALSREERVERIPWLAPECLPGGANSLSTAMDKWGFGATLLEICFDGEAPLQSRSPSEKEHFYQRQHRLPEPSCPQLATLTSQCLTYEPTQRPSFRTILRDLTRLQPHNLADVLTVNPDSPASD
Method in brief: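 Pseudokinase domain binding was measured by qPCR of tagged, bead-retained kinase after 1 h room-temperature competition, with 0.9% DMSO and compound up to 30,000 nM in 3-fold steps. Hill-equation Kd, duplicate.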

[3] = target: JAK2 kinase domain (JH1) (Homo sapiens (Human), UniProt O60674); test: JAK2 Radioactive Kinase Assay; assay type: biochemical; details: for inhibition at 10 µM: read-out: JAK2 JH1% Inhibition @ 10 μM
Sequence of JAK2 kinase domain (JH1) (O60674 849-1124): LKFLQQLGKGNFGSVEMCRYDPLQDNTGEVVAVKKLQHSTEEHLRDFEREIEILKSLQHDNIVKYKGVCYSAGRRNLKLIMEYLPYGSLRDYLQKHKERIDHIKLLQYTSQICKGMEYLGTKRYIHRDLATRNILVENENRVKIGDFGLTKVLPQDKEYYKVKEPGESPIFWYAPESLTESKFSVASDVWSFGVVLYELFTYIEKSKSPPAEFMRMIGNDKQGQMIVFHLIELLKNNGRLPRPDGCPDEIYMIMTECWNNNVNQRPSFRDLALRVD
Method in brief: as §1

Sequence of Tyk2 kinase domain (DH1) (P29597 897-1176): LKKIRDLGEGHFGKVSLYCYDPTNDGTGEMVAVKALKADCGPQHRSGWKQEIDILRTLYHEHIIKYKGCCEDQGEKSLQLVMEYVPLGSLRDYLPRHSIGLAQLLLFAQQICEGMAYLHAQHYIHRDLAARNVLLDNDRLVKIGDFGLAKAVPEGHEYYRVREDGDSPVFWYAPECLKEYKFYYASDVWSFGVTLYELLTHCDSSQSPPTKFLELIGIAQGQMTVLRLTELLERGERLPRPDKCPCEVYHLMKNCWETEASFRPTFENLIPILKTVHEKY

SMILES | inhibition at 10 µM ([1]; compound at 10 μM, ATP 10 μM) [%] | Kd [2] [nM] | inhibition at 10 µM ([3]; compound at 10 μM, ATP 10 μM) [%] | Tyk2 JH1% Inhibition @ 10 μM ([1]; compound at 10 μM, ATP 10 μM) | JAK2 JH1% Inhibition @ 10 μM ([3]; compound at 10 μM, ATP 10 μM) | inhibition at 10 µM ([1]; 10 μM compound, 10 μM ATP) [%] | inhibition at 10 µM ([3]; 10 μM compound, 10 μM ATP) [%]
CNc1cc(Nc2cccnc2O[C@H]2C[C@@H](OC)C2)nc2c(C(=O)NC3CCC3)cnn12 [I-183] | < 50 | < 0.2 | < 50 |  |  |  | 
CNc1cc(Nc2cc(C)cn(-c3ccnn3C)c2=O)nc2c(C(N)=O)cnn12 [I-75] | < 50 | 0.2 to 1 | < 50 |  |  |  | 
CNc1cc(-c2nn(CCN3CCCCC3)c3ncccc23)nc2c(C(=O)NC3CC3)cnn12 [I-457] | < 50 | 1 to 10 | < 50 |  |  |  | 
CNc1cc(Nc2cccn([C@H]3CCC[C@@H]3OC)c2=O)nc2c(C(=O)N[C@@H]3C[C@@H]3F)cnn12 [I-485] |  | 0.2 to 1 |  | A (percent inhibition at 10 μM lower than 50) | A (percent inhibition at 10 μM lower than 50) |  | 
CNc1cc(Nc2cccn([C@@H]3CCCOC3)c2=O)nc2c(C(=O)NC3CCC3)cnn12 [I-353] | < 50 | < 0.2 | < 50 |  |  |  | 
CNc1cc(Nc2cccn(-c3ccc(C4CCN(C)CC4)cc3)c2=O)nc2c(C(=O)N[C@H]3C[C@H]3F)cnn12 [I-389] | < 50 | < 0.2 | < 50 |  |  |  | 
CNc1cc(-c2cn(C(C)C)c3ncc(C)cc23)nc2c(C(=O)N[C@H]3C[C@H]3F)cnn12 [I-257] | < 50 | 0.2 to 1 | < 50 |  |  |  | 
CNc1cc(Nc2cccn([C@H]3CC[C@](C)(OC)CC3)c2=O)nc2c(C(=O)N[C@H]3CC[C@@H]3O)cnn12 [I-1108] |  | < 0.2 |  |  |  | < 50 | < 50
CNc1cc(Nc2cccn([C@H]3CC[C@@H]3OC)c2=O)nc2c(C(=O)NC3CC3)cnn12 [I-1019] |  | 0.2 to 1 |  |  |  | < 50 | < 50
COc1ncccc1Nc1cc(NCCN2CCOCC2)n2ncc(C(=O)N[C@@H]3C[C@@H]3F)c2n1 (stereo in doubt) [I-388, N-((1R,2S)-2-fluorocyclopropyl)-5-((2-methoxypyridin-3-yl)amino)-7-((2-morpholinoethyl)amino)pyrazolo[1,5-a]pyrimidine-3-carboxamide] | < 50 | 0.2 to 1 | < 50 |  |  |  | 
CNc1cc(Nc2cccc(C3CCCCO3)n2)nc2c(C(=O)NC3CC3)cnn12 (stereo not drawn) [I-432, N-cyclopropyl-7-(methylamino)-5-((6-(tetrahydro-2H-pyran-2-yl)pyridin-2-yl)amino)pyrazolo[1,5-a]pyrimidine-3-carboxamide] | < 50 | < 0.2 | < 50 |  |  |  | 
CNc1cc(Nc2cccnc2OC)nc2c(C(=O)NCCC(C)(C)O)cnn12 [I-420, N-(3-hydroxy-3-methylbutyl)-5-((2-methoxypyridin-3-yl)amino)-7-(methylamino)pyrazolo[1,5-a]pyrimidine-3-carboxamide] | < 50 | 0.2 to 1 | < 50 |  |  |  | 
CNc1cc(Nc2cccn(C3CCN(CC(F)F)CC3)c2=O)nc2c(C(=O)N[C@H]3C[C@H]3F)cnn12 [I-230] | < 50 | 0.2 to 1 | < 50 |  |  |  | 
CNc1cc(Nc2cccn(CCOC3CC3)c2=O)nc2c(C(=O)N[C@@H]3CC[C@H]3O)cnn12 [I-472, 5-((1-(2-cyclopropoyethyl)-2-oxo-1,2-dihydropyridin-3-yl)amino)-N-(2-hydroxycyclobutyl)-7-(methylamino)pyrazolo[1,5-a]pyrimidine-3-carboxamide] | < 50 | 0.2 to 1 | < 50 |  |  |  | 
CNc1cc(Nc2cccn([C@@H]3CCCC[C@@H]3OC)c2=O)nc2c(C(=O)NCC3(CO)CC3)cnn12 [I-991] |  | 1 to 10 |  |  |  | < 50 | < 50
NC(=O)c1cnn2c(N)cc(Nc3ccnn(-c4ccc(F)cc4)c3=O)nc12 [I-70, 7-amino-5-((2-(4-fluorophenyl)-3-oxo-2,3-dihydropyridazin-4-yl)amino) pyrazolo[1,5-a]pyrimidine-3-carboxamide] | < 50 | 1 to 10 | < 50 |  |  |  | 
CNc1cc(Nc2cccn([C@@H]3CCCC[C@@H]3O)c2=O)nc2c(C(=O)NC3CC3)cnn12 [I-879] |  | 1 to 10 |  |  |  | < 50 | < 50
[2H]C([2H])([2H])Oc1ncccc1Nc1cc(NC)n2ncc(C(=O)N[C@H]3CC[C@H](O)C3)c2n1 [I-462] | < 50 | < 0.2 | < 50 |  |  |  | 
CNc1cc(Nc2cccn([C@H]3CCC[C@@H](OC)C3)c2=O)nc2c(C(=O)N[C@H]3CC[C@@H]3O)cnn12 [I-1124] |  | < 0.2 |  |  |  | < 50 | < 50
CNc1cc(Nc2cccn([C@H]3[C@@H]4COC[C@@H]43)c2=O)nc2c(C(=O)NC3CC3)cnn12 [I-810] |  | < 0.2 |  |  |  | < 50 | < 50
